Data from patent US8563522B2, “Method of maintaining and/or attenuating a decline in quality of life” (The IAMS Company, priority 1997, dated 2013).
Values belong to the molecule of their own block, whether it stands above or below them.

How the values were obtained:
hexokinase = conditions: cited from earlier work
isolated rat hepatocytes = conditions: cited from earlier work
glucose metabolism = conditions: rodents, long-term, lower dose; cited from earlier work
[1] = test system: utilization of glucose as an energy source; conditions: cited from earlier work
[2] = injected into a rat; cited from earlier work
[3] = Pharmacokinetics, once daily mannoheptulose in composition fed to adult Labrador Retrievers; type: in vivo, Labrador Retriever dogs
Experimental: The pharmacokinetics of mannoheptulose can be determined in six adult, male Labrador Retriever dogs fed a nutritionally-balanced composition providing mannoheptulose at levels of 0, 1 or 2 mg/kg of body weight of the dog. Mannoheptulose is provided as an enriched source of avocado extract in the 1 and 2 mg/kg diets. The mean age of the dogs is 4.2 years and the age ranges from 3.3 to 6.1 years. The average body weight of all dogs is 33 kg and the body weight ranges from 28 to 36 kg. Dogs are adapted for 14 days to a nutritionally-balanced control composition (Eukanuba Senior Maintenance Formula) containing no mannoheptulose, avocado extract or avocado meal (0 mg/kg mannoheptulose). The two compositions containing mannoheptulose are the nutritionally-balanced control composition formulated with avocado extract to provide a mannoheptulose dose of 1 or 2 mg/kg of body weight when fed to a dog. […] Pharmacokinetics of mannoheptulose following once daily administration of mannoheptulose in a nutritionally-balanced composition is determined by collecting serial blood samples (3 mL) from each dog on day 9 using a Vacutainer blood collection system and jugular venipuncture. […] Plasma mannoheptulose concentrations are measured using high-performance liquid chromatography tandem mass spectrometry as described herein below.
A one-compartment model is used to calculate mannoheptulose pharmacokinetics based on plasma mannoheptulose levels following once daily oral administration of mannoheptulose in a nutritionally-balanced composition (PV(t)). […] Area under each plasma mannoheptulose curve is determined using a one-way, repeated measures analysis of variance (GraphPad Prism version 4.00 for Windows).
High performance liquid chromatography tandem mass spectrometry (HPLC/MS/MS) is utilized to determine the amount of mannoheptulose present in the plasma of adult dogs. […] Detection and quantitation is by mass spectrometry (MS) operating under multiple reaction monitoring MS/MS conditions. Concentrations of D-mannoheptulose in dog plasma can be quantitated from approximately 20 to 5000 ng/mL. […]

[4] = Mice fed a composition containing mannoheptulose; type: in vivo
[5] = Pharmacokinetics, twice daily mannoheptulose in composition fed to older Labrador Retrievers; type: in vivo, Labrador Retriever dogs
Experimental: The pharmacokinetics of mannoheptulose can be determined in ten adult, female Labrador Retriever dogs fed a nutritionally-balanced composition providing mannoheptulose at levels of 0 or 2 mg/kg of body weight of the dog. Mannoheptulose is provided as avocado extract in the 2 mg/kg diet. The mean age of the dogs is 7.1 years and the age ranges from 5.3 to 8.4 years. Dogs are age-matched across the two composition groups. The average body weight of all dogs is 29 kg and ranges from 25 to 35 kg. The 0 mg/kg composition is fed as a nutritionally-balanced control composition (Eukanuba Senior Maintenance Formula) and it contains no mannoheptulose, avocado extract or avocado meal. The 2 mg/kg composition is the nutritionally-balanced control composition formulated to contain avocado extract to provide mannoheptulose at a dose of 2 mg/kg of body weight of the dog. The amount of composition offered to the dogs is based on feeding guidelines for the control composition and the target weight range and body condition of the dogs. Dogs are fed one-half their daily allotment of composition at 0730 and the remaining half at 1330. Dogs 1, 2, 3, 4 and 5 are fed the composition containing 2 mg/kg mannoheptulose and dogs 6, 7, 8, 9 and 10 are fed the composition containing 0 mg/kg mannoheptulose. Pharmacokinetics of mannoheptulose following twice daily administration of mannoheptulose in a nutritionally-balanced composition is determined by collecting serial blood samples (3 mL) from each dog using a Vacutainer blood collection system and jugular venipuncture. […] Plasma mannoheptulose concentrations are measured using high-performance liquid chromatography tandem mass spectrometry as described herein below.
A one-compartment model is used to calculate mannoheptulose pharmacokinetics based on plasma mannoheptulose levels following twice daily oral administration of mannoheptulose in a nutritionally-balanced composition (PV(t)). The model is: PV(t)=dose/(a·BW)e^−kt where: a=mannoheptulose pool size (dose/(enrichment at t0)), BW=body weight, k=rate constant of elimination (ln Et−ln E0)/−t, and t=time.
High performance liquid chromatography tandem mass spectrometry (HPLC/MS/MS) is utilized to determine the amount of mannoheptulose present in the plasma of adult dogs. […] Detection and quantitation is by mass spectrometry (MS) operating under multiple reaction monitoring MS/MS conditions. Concentrations of D-mannoheptulose in dog plasma can be quantitated from approximately 20 to 5000 ng/mL. […] Specimen concentrations are determined by back-calculation using a weighted (1/x^2) linear regression of a calibration curve generated from prepared D-mannoheptulose calibration standards. […]

[6] = doses of 10 grams, humans, orally; cited from earlier work
[7] = injected, rats, cited from earlier work

Compound: O=P(O)(O)OC[C@H]1OC[C@H](O)[C@@H](O)[C@@H]1O [1,5-anhydro-D-glucitol-6-phosphate]
inhibition of hexokinase (hexokinase): allosteric (non-competitive) inhibitor

Compound: OC[C@H]1O[C@H](CO)[C@@H](O)[C@@H]1O [2,5-Anhydro-D-mannitol, 2,5-anhydro-D-mannitol]
effect on glucose formation and utilization (isolated rat hepatocytes): interfere in glucose formation and utilization

Compound: O=CC[C@@H](O)[C@H](O)[C@H](O)CO [2-deoxy-D-glucose]
metabolic hallmarks of caloric restriction (glucose metabolism): reduced body temperature, weight loss, and lower fasting insulin levels

Compound: CO[C@@H]([C@H](O)[C@H](O)CO)[C@@H](O)C=O [3-O-methylglucose]
responses relative to 2-deoxyglucose ([1]; administration in rats): about seven times weaker
metabolism ([1]; in contrast with 2-deoxy-D-glucose): not metabolized

Compound: O=C[C@H](O)[C@@H](O)[C@H](O)[C@H](S)CO [5-Thioglucose, 5-thio-D-glucose]
injected 5-thioglucose excreted unchanged in urine [2]: 97%

plasma level response to dietary mannoheptulose level ([3]; 0, 1, 2 mg/kg): dose-dependent
time of return of plasma mannoheptulose to non-detectable levels ([3]; after consumption of the single daily meal): ≤ 24 h
plasma kinetics order ([3]; once daily oral, 1 or 2 mg/kg): first order kinetics
time to second peak in plasma mannoheptulose ([5]; after feeding the afternoon meal, 2 mg/kg in two equal meals): 4 h
time to peak plasma mannoheptulose level ([5]; after initial (morning) feeding, 2 mg/kg in two equal meals): 4 h
plasma kinetics order ([5]; twice daily oral, 2 mg/kg): first order kinetics
half-life ([5]; twice daily, 2 mg/kg, after the afternoon meal): 5.63 h
Compound: O=C(CO)[C@@H](O)[C@@H](O)[C@H](O)[C@H](O)CO [mannoheptulose]
body weight [4]: slightly reduced body weight
plasma insulin levels [4]: reduced plasma insulin levels
safety of oral dosing [6]: safely administered
remained in the body ([7]; a day after the injection): 5%
excreted unchanged [7]: 66%
metabolized [7]: 29%
